Molecular target: T1, human P2X4 (Homo sapiens, UniProt Q99571)
T1 sequence (Q99571 1-388): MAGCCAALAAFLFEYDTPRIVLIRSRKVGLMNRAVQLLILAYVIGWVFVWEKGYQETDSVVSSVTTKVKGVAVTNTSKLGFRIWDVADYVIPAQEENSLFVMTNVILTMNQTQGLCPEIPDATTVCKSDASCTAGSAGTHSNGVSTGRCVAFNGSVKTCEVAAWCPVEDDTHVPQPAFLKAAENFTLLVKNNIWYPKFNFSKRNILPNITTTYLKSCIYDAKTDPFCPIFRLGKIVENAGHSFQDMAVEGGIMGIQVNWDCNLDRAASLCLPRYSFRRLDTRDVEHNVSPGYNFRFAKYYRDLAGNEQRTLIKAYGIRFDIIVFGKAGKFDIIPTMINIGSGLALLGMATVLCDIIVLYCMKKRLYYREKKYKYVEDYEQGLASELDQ
Experiment: Human P2X4 HEK Cell FLIPR Assay
Assay type: cell-based
Details: agonist Bz-ATP at EC80; for Emax: HEK293, HEK293 cells, percentage of maximal inhibition, read-out: Human P2X4 HEK Cells (FLIPR Assay) avg Efficacy [%]; for IC50: HEK293 cells, individual values listed where some fall outside detection range
Outline: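 Calcium flux read by FLIPR for 120 sec after Bz-ATP challenge at EC80 (established each assay day), following 30 min room-temperature compound preincubation in dye-loaded stable human P2X4 HEK293 cells. Peak RFU over basal normalized to agonist control; IC50, maximal inhibition and Hill coefficient from triplicate means.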

SMILES | Emax [%] | IC50 [nM]
NS(=O)(=O)c1cc(NC(=O)C(O)c2ccccc2Cl)ccc1-c1cnn(C2CC2)c1 (stereo not drawn) [Example 323, 2-(2-Chlorophenyl)-N-[4-(1-cyclopropyl-1H-pyrazol-4-yl)-3-sulfamoylphenyl]-2-hydroxyethanamide] | 81 | 2580
CC(C(=O)Nc1ccc(-n2cc(Cl)cn2)c(S(N)(=O)=O)c1)c1c(F)cccc1F (stereo not drawn) [Example 106, N-[4-(4-Chloro-1H-pyrazol-1-yl)-3-sulfamoylphenyl]-2-(2,6-difluorophenyl)-propanamide] | 92 | 4630
COc1ccc(CC(=O)Nc2ccc(-c3ccc(Cl)nc3)c(S(N)(=O)=O)c2)cc1 [Example 470, N-[4-(6-Chloropyridin-3-yl)-3-sulfamoylphenyl]-2-(4-methoxyphenyl)acetamide] | 93 | 483
N#Cc1cnn(-c2ccc(NC(=O)Cc3c(F)ccc(F)c3Cl)cc2S(N)(=O)=O)c1 [Example 208, 2-(2-Chloro-3,6-difluorophenyl)-N-[4-(4-cyano-1H-pyrazol-1-yl)-3-sulfamoylphenyl]-acetamide] | 91 | 33
NS(=O)(=O)c1cc(NC(=O)Cc2cc(Cl)ccc2F)ccc1-c1cnn(C2CC2)c1 [Example 371, 2-(5-Chloro-2-fluorophenyl)-N-[4-(1-cyclopropyl-1H-pyrazol-4-yl)-3-sulfamoylphenyl]acetamide] | 99 | 152
N#Cc1cnn(-c2ccc(NC(=O)Cc3ccc(F)cc3Cl)cc2S(N)(=O)=O)c1 [Example 202, 2-(2-Chloro-4-fluorophenyl)-N-[4-(4-cyano-1H-pyrazol-1-yl)-3-sulfamoylphenyl]-acetamide] | 90 | 48
NS(=O)(=O)c1cc(NC(=O)Cc2ccccc2Cl)ccc1-n1cc(C(=O)N2CCC(F)(F)C2)cn1 [Example 443, 2-(2-Chlorophenyl)-N-(4-{4-[(3,3-difluoropyrrolidin-1-yl)carbonyl]-1H-pyrazol-1-yl}-3-sulfamoylphenyl)acetamide] | 84 | 122
CC(C)(O)Cn1cc(-c2ccc(NC(=O)Cc3ccccc3Cl)cc2S(N)(=O)=O)cn1 [Example 370, 2-(2-Chlorophenyl)-N-{4-[1-(2-hydroxy-2-methylpropyl)-1H-pyrazol-4-yl]-3-sulfamoylphenyl}acetamide] | 76 | 143
Cc1ccc(Cl)c(CC(=O)Nc2ccc(-n3cc(C#N)cn3)c(S(N)(=O)=O)c2)c1 [Example 209, 2-(2-Chloro-5-methylphenyl)-N-[4-(4-cyano-1H-pyrazol-1-yl)-3-sulfamoylphenyl]-acetamide] | 91 | 37
COc1ccccc1CC(=O)Nc1ccc(-n2cc(C#N)cn2)c(S(N)(=O)=O)c1 [Example 182, N-[4-(4-Cyano-1H-pyrazol-1-yl)-3-sulfamoylphenyl]-2-(2-methoxyphenyl)acetamide] | 89 | 161
NS(=O)(=O)c1cc(NC(=O)Cc2ccc(F)cc2)ccc1-n1cc(F)cn1 [Example 149, 2-(4-Fluorophenyl)-N-[4-(4-fluoro-1H-pyrazol-1-yl)-3-sulfamoylphenyl]acetamide] | 56 | 211
NS(=O)(=O)c1cc(NC(=O)Cc2ccccc2Cl)ccc1-c1cnn(C2CCNCC2)c1 [Example 269, 2-(2-Chlorophenyl)-N-{4-[1-(piperidin-4-yl)-1H-pyrazol-4-yl]-3-sulfamoylphenyl}-acetamide] | 81 | 1040
NS(=O)(=O)c1cc(NC(=O)Cc2ccccc2Cl)ccc1-c1cccc(Cl)c1 [Example 356, 2-(2-Chlorophenyl)-N-(3′-chloro-2-sulfamoylbiphenyl-4-yl)acetamide] | 96 | 63
NS(=O)(=O)c1cc(NC(=O)Cc2ccccc2Cl)ccc1-c1cncc(N2CCCC2)c1 [Example 322, 2-(2-Chlorophenyl)-N-{4-[5-(pyrrolidin-1-yl)pyridin-3-yl]-3-sulfamoylphenyl}acetamide] | 81 | 186
CC(C)c1ccccc1CC(=O)Nc1ccc(-n2cc(Cl)cn2)c(S(N)(=O)=O)c1 [Example 100, N-[4-(4-Chloro-1H-pyrazol-1-yl)-3-sulfamoylphenyl]-2-(2-isopropylphenyl)acetamide] | 86 | 319
CC(C)(O)c1ncc(-c2ccc(NC(=O)Cc3ccccc3Cl)cc2S(N)(=O)=O)s1 [Example 435, 2-(2-Chlorophenyl)-N-{4-[2-(2-hydroxypropan-2-yl)-1,3-thiazol-5-yl]-3-sulfamoylphenyl}acetamide] | 77 | 588

SMILES | Emax [%] | IC50 [nM]
NS(=O)(=O)c1cc(NC(=O)Cc2c(F)cc(F)cc2Cl)ccc1-n1cc(C(F)(F)F)cn1 [Example 143, 2-(2-Chloro-4,6-difluorophenyl)-N-{3-sulfamoyl-4-[4-(trifluoromethyl)-1H-pyrazol-1-yl]phenyl}acetamide] | 84 | 247
CC(C)Nc1ncc(-c2ccc(NC(=O)Cc3ccccc3Cl)cc2S(N)(=O)=O)cn1 [Example 310, 2-(2-Chlorophenyl)-N-{4-[2-(propan-2-ylamino)pyrimidin-5-yl]-3-sulfamoylphenyl}acetamide] | 59 | 86
COc1ccc(CC(=O)Nc2ccc(-n3cc(C(F)(F)F)nn3)c(S(N)(=O)=O)c2)cc1 [Example 407, 2-(4-Methoxyphenyl)-N-{3-sulfamoyl-4-[4-(trifluoromethyl)-1H-1,2,3-triazol-1-yl]phenyl}acetamide] | 86 | 429
NS(=O)(=O)c1cc(NC(=O)Cc2ccccc2Cl)ccc1-n1nc(C(F)F)cc1C1CC1 [Example 13, 2-(2-Chlorophenyl)-N-{4-[5-cyclopropyl-3-(difluoromethyl)-1H-pyrazol-1-yl]-3-sulfamoylphenyl}acetamide] | 100 | 514
Cc1noc(C)c1-c1ccc(NC(=O)Cc2ccccc2Cl)cc1S(N)(=O)=O [Example 275, 2-(2-Chlorophenyl)-N-[4-(3,5-dimethyl-1,2-oxazol-4-yl)-3-sulfamoylphenyl]acetamide] | 82 | 507
NS(=O)(=O)c1cc(NC(=O)C(F)(F)c2ccccc2Cl)ccc1-n1cc(Br)cn1 [Example 62, N-[4-(4-Bromo-1H-pyrazol-1-yl)-3-sulfamoylphenyl]-2-(2-chlorophenyl)-2,2-difluoroacetamide] | 94 | 249
NS(=O)(=O)c1cc(NC(=O)C(F)(F)c2ccccc2Cl)ccc1-n1cc(Cl)cn1 [Example 109, 2-(2-Chlorophenyl)-N-[4-(4-chloro-1H-pyrazol-1-yl)-3-sulfamoylphenyl]-2,2-difluoroacetamide] | 86 | 655
COc1ncn(-c2ccc(NC(=O)Cc3ccccc3Cl)cc2S(N)(=O)=O)n1 [Example 249, 2-(2-Chlorophenyl)-N-[4-(3-methoxy-1H-1,2,4-triazol-1-yl)-3-sulfamoylphenyl]-acetamide] | 72 | 8460
NS(=O)(=O)c1cc(NC(=O)Cc2ccccc2C(F)(F)F)ccc1-n1cc(Br)cn1 [Example 64, N-[4-(4-Bromo-1H-pyrazol-1-yl)-3-sulfamoylphenyl]-2-[2-(trifluoromethyl)-phenyl]acetamide] | 83 | 104
Cn1cc(-c2ccc(NC(=O)Cc3ccccc3Cl)cc2S(N)(=O)=O)cn1 [Example 360, 2-(2-Chlorophenyl)-N-[4-(1-methyl-1H-pyrazol-4-yl)-3-sulfamoylphenyl]acetamide] | 93 | 
Cc1ccc(-c2ccc(NC(=O)Cc3ccccc3Cl)cc2S(N)(=O)=O)cn1 [Example 372, 2-(2-Chlorophenyl)-N-[4-(6-methylpyridin-3-yl)-3-sulfamoylphenyl]acetamide] | 83 | 166
NS(=O)(=O)c1cc(NC(=O)Cc2ccccc2[N+](=O)[O-])ccc1-n1cc(Cl)cn1 [Example 78, N-[4-(4-Chloro-1H-pyrazol-1-yl)-3-sulfamoylphenyl]-2-(2-nitrophenyl)acetamide] | 97 | 517
N#Cc1cnn(-c2ccc(NC(=O)Cc3ccccc3O)cc2S(N)(=O)=O)c1 [Example 193, N-[4-(4-Cyano-1H-pyrazol-1-yl)-3-sulfamoylphenyl]-2-(2-hydroxyphenyl)acetamide] | 84 | 427
NS(=O)(=O)c1cc(NC(=O)Cc2ccccc2OC(F)(F)F)ccc1-n1cc(Br)cn1 [Example 70, N-[4-(4-Bromo-1H-pyrazol-1-yl)-3-sulfamoylphenyl]-2-[2-(trifluoromethoxy)-phenyl]acetamide] | 85 | 118
CC(C)(C)c1cn(-c2ccc(NC(=O)Cc3ccccc3Cl)cc2S(N)(=O)=O)cn1 [Example 40, N-[4-(4-tert-Butyl-1H-imidazol-1-yl)-3-sulfamoylphenyl]-2-(2-chlorophenyl)acetamide] | 90 | 1240
Cc1ccc(CC(=O)Nc2ccc(-n3cc(F)cn3)c(S(N)(=O)=O)c2)cc1 [Example 152, N-[4-(4-Fluoro-1H-pyrazol-1-yl)-3-sulfamoylphenyl]-2-(4-methylphenyl)acetamide] | 79 | 105

From patent publication US11524938B2, “Aromatic sulfonamide derivatives” (Bayer Pharma Aktiengesellschaft, priority 2016, dated 2022)
